Test results: patent publication US20210402016A1, “RADIOLABELED BOMBESIN-DERIVED COMPOUNDS FOR IN VIVO IMAGING OF GASTRIN-RELEASING PEPTIDE RECEPTOR (GRPR) AND TREATMENT OF GRPR-RELATED DISORDERS” (Provincial Health Services Authority, priority 2018, published 2021)
Several values for one entry are separate records, joined by “and”; a condition that tells them apart may be missing. Equal entries are not always repeated.

Columns and labels:
PC-3 cells = assay: Fluorometric calcium release assay (FLIPR Calcium 6); type: cell-based, human
Method: Calcium release assays were performed using a FLIPR Calcium 6 assay kit (Molecular Devices) according to published procedures (26). Briefly, 5×10^4 PC-3 cells were seeded overnight in 96-well clear bottom black plates. The growth medium was replaced with loading buffer containing a calcium-sensitive dye and incubated for 30 min at 37° C. The plate was placed in a FlexStation 3 microplate reader (Molecular Devices) and baseline fluorescent signals were acquired for 15 sec. […] The relative fluorescence unit (RFU=Max-Min) was used to determine the agonistic/antagonistic properties.

human GRPR = biological target: T1, human GRPR (Homo sapiens, UniProt P30550); assay: Competition binding assay, displacement of [^125I-Tyr^4]Bombesin on PC-3 cells
T1 construct: endogenous in cells; host or cells: PC-3 human prostate adenocarcinoma cells (whole cells)
T1 sequence (P30550 whole entry): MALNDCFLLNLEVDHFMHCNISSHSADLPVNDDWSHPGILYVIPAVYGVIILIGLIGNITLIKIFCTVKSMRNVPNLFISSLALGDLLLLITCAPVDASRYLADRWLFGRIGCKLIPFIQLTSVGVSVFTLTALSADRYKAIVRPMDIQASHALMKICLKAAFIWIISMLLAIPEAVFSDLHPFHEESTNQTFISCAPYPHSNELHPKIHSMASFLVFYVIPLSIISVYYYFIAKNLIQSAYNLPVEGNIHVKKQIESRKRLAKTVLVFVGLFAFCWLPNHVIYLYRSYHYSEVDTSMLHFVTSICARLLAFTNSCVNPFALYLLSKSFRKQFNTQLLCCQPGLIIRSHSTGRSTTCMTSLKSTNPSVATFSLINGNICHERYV
Method: Cells were incubated 30-60 min at 37° C.

[1] = system: PC-3 xenograft bearing mice; assay: Biodistribution in PC-3 tumor-bearing NRG mice (Example 1); type: in vivo
Method: The mice were sacrificed by CO2 inhalation at 30 min, 1 h, and 2 h p.i. Blood was collected by cardiac puncture. Organs/tissues were harvested, rinsed with PBS, blotted dry, and weighed. The activity in tissues was assayed by gamma counter and expressed as the percentage injected dose per gram of tissue (% ID/g).

[2] = system: PC-3 xenograft bearing mice; conditions: PET/CT, PC-3 tumor-bearing mice
Method: Animal experiments were approved by the Animal Ethics Committee of the University of British Columbia. Male NOD.Cg-Rag1^tm1Mom∥2rg^tm1Wjl/SzJ (NRG) mice obtained from an in-house colony were subcutaneously inoculated with 5×10^6 PC-3 cells (100 μL; 1:1 PBS/Matrigel), and tumors were grown for 2 to 3 weeks.
Mice were sedated and scanned (Siemens Inveon microPET/CT) with body temperature maintained by heating pad. […] PET data were acquired in list mode, reconstructed using 3-dimensional ordered-subsets expectation maximization (2 iterations) followed by a fast maximum a priori algorithm (18 iterations) with CT-based attenuation correction. Images were analyzed using the Inveon Research Workplace software (Siemens Healthineers).

[3] = system: nude mice bearing PC-3 tumors; conditions: Dalm et al.; cited from earlier work
GRPR = biological target: T2, GRPR (Mus musculus, UniProt P21729); conditions: determined using Swiss 3T3 cells; read-out: Reported Ki value; cited from earlier work
T2 construct: the latter value was determined using Swiss 3T3 cells (17); host or cells: Swiss 3T3 cells
T2 sequence (P21729 whole entry): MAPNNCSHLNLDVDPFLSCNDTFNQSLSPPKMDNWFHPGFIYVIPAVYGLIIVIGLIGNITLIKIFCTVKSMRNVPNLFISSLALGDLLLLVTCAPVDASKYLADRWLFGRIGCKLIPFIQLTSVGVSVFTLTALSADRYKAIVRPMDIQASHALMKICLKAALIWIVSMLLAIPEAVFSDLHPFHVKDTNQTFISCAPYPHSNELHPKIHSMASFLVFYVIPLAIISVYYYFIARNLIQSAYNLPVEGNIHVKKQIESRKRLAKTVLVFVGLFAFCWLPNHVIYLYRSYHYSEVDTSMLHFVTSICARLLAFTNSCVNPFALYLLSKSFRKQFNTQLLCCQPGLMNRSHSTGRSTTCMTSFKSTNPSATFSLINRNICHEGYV

In the case of `Nc1ncnc2c1ncn2[C@@H]1O[C@H](COP(=O)(O)OP(=O)(O)OP(=O)(O)O)[C@@H](O)[C@H]1O` [ATP, adenosine triphosphate, reference compound], the Intracellular calcium release (PC-3 cells; 50 nM) is reported as 511±45.5 RFUs.
`CC(C)CC(CC(C)C)NC(=O)[C@H](Cc1c[nH]cn1)NC(=O)CNC(=O)[C@@H](NC(=O)[C@H](C)NC(=O)[C@H](Cc1c[nH]c2ccccc12)NC(=O)[C@H](CCC(N)=O)NC(=O)[C@@H](Cc1ccccc1)NC(=O)COCC(=O)Nc1ccc(CNC(=O)CN2CCN(CC(=O)O)CCN(CC(=O)O)CCN(CC(=O)O)CC2)cc1)C(C)C` [Ga-NeoBOMB1, reference compound] showed a Ki (human GRPR) of 1.71 ± 0.28 nM.
In the case of `CC(C)CC(CC(C)C)NC(=O)[C@H](Cc1cnc[nH]1)NC(=O)CNC(=O)[C@@H](NC(=O)[C@H](C)NC(=O)[C@H](Cc1c[nH]c2ccccc12)NC(=O)[C@H](CCC(N)=O)NC(=O)[C@@H](Cc1ccccc1)NC(=O)COCC(=O)Nc1ccc(CNC(=O)CN2CCN(CC(=O)O)CCN(CC(=O)O)CCN(CC(=O)O)CC2)cc1)C(C)C` [^68Ga-NeoBOMB1, metal not drawn, reference compound], the “Biodistribution PC-3 Tumor, Mean” value ([1]; 30 min p.i.) is reported as 9.60±0.99 % ID/g, the “Biodistribution Pancreas, Mean” value ([1]; 30 min p.i.) is reported as 95.7±12.7 % ID/g and the “Biodistribution PC-3 Tumor, Mean” value ([1]; 60 min p.i.) is reported as 9.83±1.48 % ID/g. For the same molecule, the “Biodistribution Pancreas, Mean” value ([1]; 60 min p.i.) was 122±28.4 % ID/g and 123±28.4 % ID/g, the “Biodistribution Blood, Mean” value ([1]; 120 min p.i.) was 0.45±0.10 % ID/g and the “Biodistribution PC-3 Tumor, Mean” value ([1]; 120 min p.i.) was 12.1±3.72 % ID/g. For the same molecule, the “Biodistribution Pancreas, Mean” value ([1]; 120 min p.i.) was 139±26.8 % ID/g, the “Excretion / clearance pathway” value [2] was “both the hepatobiliary and renal pathways” and the Uptake in pancreas [3] was about 15 % ID/g. The Uptake in tumor [3] was about 10 % ID/g.
In the case of “D-Phe-Gln-Trp-Ala-Val-Gly-His-Leu-L-Tac-NH2 [RC-3950-II]”, the Ki (GRPR) is given as 0.078 nM.
“[D-Phe^6, Leu-NHEt^13, des-Met^14]Bombesin(6-14) [reference compound]” showed an Intracellular calcium release (PC-3 cells; 5 nM) of 22.3±16.8 RFUs and an Intracellular calcium release (PC-3 cells; 50 nM) of 42.0±20.4 RFUs.
